Nine compounds from patent US9238626B2 (priority 2012, dated 2016) can be followed below.

For one assay, the target named is β-Secretase (BACE-1) (Homo sapiens (Human), UniProt P56817). Description: β-Secretase (BACE-1) inhibition assay. It counts as biochemical. Here is the method:
β-Secretase (BACE-1, Sigma) inhibition studies were performed by employing a peptide mimicking APP sequence as substrate (methoxycoumarin-[…]dinitrophenyl, M-2420, Bachem). The following procedure was employed: 5 μL of test compound (or DMSO, if preparing a control well) were pre-incubated with 175 μL of the enzyme (in 20 mM sodium acetate containing CHAPS 0.1% w/v) for 1 h at room temperature. The substrate (3 μM, final concentration) was then added and left to react for 15 min. The fluorescence signal was read at λem=405 nm (λexc=320 nm). […] The fluorescence intensities with and without inhibitor were compared and the percent inhibition due to the presence of test compounds was calculated. The background signal was measured in control wells containing all the reagents, except BACE-1 and subtracted. […] Inhibition curves were obtained by plotting the % inhibition versus the logarithm of inhibitor concentration in the assay sample. The linear regression parameters were determined and the IC50 extrapolated (GraphPad Prism 4.0, GraphPad Software Inc.).

Another assay addresses Aβ1-42 (Homo sapiens, UniProt P05067). Description: Aβ1-42 self-aggregation inhibition assay (thioflavin T). Conditions: inhibitor 10 μM, [Aβ]/[I]=5/1. It counts as biochemical. Here is the method: As reported in a previously published protocol (cf. M. Bartolini et al., “Insight into the Kinetic of Amyloid Beta (1-42) Peptide Self-Aggregation: Elucidation of Inhibitors' Mechanism of Action. ChemBioChem 2007, vol. 8, pp. 2152-2161), HFIP pretreated Aβ1-42 samples (Bachem AG, Switzerland) were solubilized with a CH3CN/0.3 mM Na2CO3250 mM NaOH (48.4:48.4:3.2) mixture to obtain a 500 μM solution. Experiments were performed by incubating the peptide in 10 mM phosphate buffer (pH=8.0) containing 10 mM NaCl, at 30° C. for 24 h (final Aβ concentration 50 μM) with and without inhibitor (10 μM, Aβ/inhibitor=5/1). Blanks containing the tested inhibitors were also prepared and tested.

The target of assay [1] is Electrophorus electricus (ee) AChE (Electrophorus electricus (Electric eel) (Gymnotus electricus), UniProt O42275). The experiment in a line: AChE inhibition assay (Ellman), eeAChE. It counts as biochemical. The procedure:
AChE inhibitory activity of compounds (Ia)-(Ie) and (−)-(Ib) and (+)-(Ib) was evaluated spectrophotometrically at 25° C. by the method of Ellman et al., using recombinant human AChE (hAChE) and Electrophorus electricus (ee) AChE and acetylthiocholine iodide as substrate (cf. G. L. Ellman et al., “New and Rapid Colorimetric Determination of Acetylcholinesterase Activity” Biochem. Pharmacol. 1961, vol. 7, pp. 88-95). For eeAChE inhibitory activity determination, the reaction took place in a final volume of 300 μL of 0.1 M phosphate-buffered solution pH 8.0, containing 0.03 unit/mL of ee AChE and 333 μM 5,5′-dithiobis(2-nitrobenzoic) acid (DTNB) solution used to produce the yellow anion of 5-thio-2-nitrobenzoic acid. Inhibition curves were performed in duplicates using at least 10 increasing concentrations of inhibitor and preincubating at 37° C. for 20 min. One duplicate sample without inhibitor was always present to yield 100% of AChE activity. Then, substrate acetylthiocholine (450 μM) was added and the reaction was developed at 37° C. for 5 min. The color production was measured at 414 nm.
(§1) Results are expressed as mean±S.E.M. of at least 4 experiments performed in duplicate. DTNB, acetylthiocholine, butyrylthiocholine, and enzymes were purchased from Sigma.
Background: Ellman's reagent forms a yellow product with free thiols.

The next assay deals with human serum BChE (Homo sapiens (Human), UniProt P06276). The experiment in a line: BChE inhibition assay (Ellman). It counts as biochemical. Here is the method:
BChE inhibitory activity determinations were carried out similarly by the method of Ellman et al., using 0.02 unit/mL of human serum BChE and 300 μM butyrylthiocholine, instead of AChE and acetylthiocholine, in a final volume of 300 μL.
as §1

Assay [2] concerns human recombinant AChE-induced Aβ1-40 aggregation. Description: AChE-induced Aβ1-40 aggregation inhibition assay (thioflavin T). To be noted: inhibitor 100 μM.
Procedure: Aβ1-40, supplied as trifluoroacetate salt, was purchased from Bachem AG (Germany). Aβ1-40 (2 mg mL^−1) was dissolved in HFIP, lyophilized, and then resolubilized in DMSO to get a 2.3 mM Aβ1-40 solution. 1 mM Solutions of tested inhibitors were prepared by dissolution in MeOH.
Aliquots of 2 μL Aβ1-40 peptide were incubated for 24 h at room temperature in 0.215 M sodium phosphate buffer (pH 8.0) at a final concentration of 230 μM. […] The final volume of each vial was 20 μL. Each assay was run in duplicate. To quantify amyloid fibril formation, the thioflavin T fluorescence method was then applied (cf. H. Naiki et al., “Kinetic Analysis of Amyloid Fibril Polymerization in Vitro”, Lab. Invest. 1991, vol. 65, pp. 104-110). The fluorescence intensities due to β-sheet conformation were monitored for 300 s at λem=490 nm (λexc=446 nm). The percent inhibition of the AChE-induced aggregation due to the presence of the tested compound was calculated by the following expression: 100−(IFi/IFo×100) where IFi and IFe are the fluorescence intensities obtained for Aβ plus AChE in the presence and in the absence of inhibitor, respectively, minus the fluorescence intensities due to the respective blanks.

Counter-ions that a name gives are not always drawn. Like-named read-outs stand apart in the source and are kept apart here.

human serum BChE, sequence (P06276 29-602): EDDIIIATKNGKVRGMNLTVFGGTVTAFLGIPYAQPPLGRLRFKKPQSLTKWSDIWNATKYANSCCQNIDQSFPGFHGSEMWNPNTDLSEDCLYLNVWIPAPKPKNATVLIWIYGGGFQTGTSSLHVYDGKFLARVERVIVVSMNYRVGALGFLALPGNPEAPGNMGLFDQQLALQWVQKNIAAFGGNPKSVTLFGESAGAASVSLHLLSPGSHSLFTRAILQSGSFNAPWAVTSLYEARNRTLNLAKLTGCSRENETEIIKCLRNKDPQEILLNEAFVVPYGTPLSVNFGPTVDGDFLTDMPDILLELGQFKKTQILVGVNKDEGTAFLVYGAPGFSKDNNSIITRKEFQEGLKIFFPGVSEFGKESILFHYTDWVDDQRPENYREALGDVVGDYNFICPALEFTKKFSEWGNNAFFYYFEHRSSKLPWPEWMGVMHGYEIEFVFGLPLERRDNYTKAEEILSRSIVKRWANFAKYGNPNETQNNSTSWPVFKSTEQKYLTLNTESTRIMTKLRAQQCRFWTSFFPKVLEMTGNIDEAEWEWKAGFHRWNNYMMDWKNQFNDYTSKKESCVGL
β-Secretase (BACE-1), sequence (P56817 46-501): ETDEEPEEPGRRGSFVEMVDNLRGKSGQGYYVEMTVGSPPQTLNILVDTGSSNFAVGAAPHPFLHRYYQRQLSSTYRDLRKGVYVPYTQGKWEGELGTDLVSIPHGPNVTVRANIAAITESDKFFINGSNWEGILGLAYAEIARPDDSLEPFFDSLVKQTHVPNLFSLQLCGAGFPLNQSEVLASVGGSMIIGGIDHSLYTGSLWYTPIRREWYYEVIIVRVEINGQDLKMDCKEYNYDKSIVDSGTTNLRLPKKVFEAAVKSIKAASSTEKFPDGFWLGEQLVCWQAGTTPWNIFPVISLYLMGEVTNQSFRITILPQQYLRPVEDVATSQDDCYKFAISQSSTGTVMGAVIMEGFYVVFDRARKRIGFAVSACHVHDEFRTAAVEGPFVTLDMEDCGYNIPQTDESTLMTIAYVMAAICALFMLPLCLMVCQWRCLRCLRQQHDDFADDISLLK
Electrophorus electricus (ee) AChE, sequence (O42275 whole entry, looked up): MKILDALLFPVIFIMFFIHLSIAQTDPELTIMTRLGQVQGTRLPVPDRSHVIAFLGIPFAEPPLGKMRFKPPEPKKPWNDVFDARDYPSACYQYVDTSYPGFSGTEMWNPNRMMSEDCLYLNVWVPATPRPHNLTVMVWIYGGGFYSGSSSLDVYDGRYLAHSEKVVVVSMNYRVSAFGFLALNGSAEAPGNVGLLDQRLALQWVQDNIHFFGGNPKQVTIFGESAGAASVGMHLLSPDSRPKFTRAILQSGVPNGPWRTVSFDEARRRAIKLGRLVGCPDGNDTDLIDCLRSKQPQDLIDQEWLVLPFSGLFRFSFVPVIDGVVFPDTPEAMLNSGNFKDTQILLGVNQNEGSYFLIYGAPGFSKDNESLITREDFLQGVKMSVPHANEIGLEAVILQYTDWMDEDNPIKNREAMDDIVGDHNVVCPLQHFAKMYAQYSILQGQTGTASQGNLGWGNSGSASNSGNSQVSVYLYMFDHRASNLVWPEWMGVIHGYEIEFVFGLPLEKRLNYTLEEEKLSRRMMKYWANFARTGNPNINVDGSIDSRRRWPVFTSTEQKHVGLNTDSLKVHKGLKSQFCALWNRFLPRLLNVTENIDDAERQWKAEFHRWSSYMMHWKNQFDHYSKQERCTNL

As a reminder, the IC50 is the concentration that inhibits the measured activity by half. On to `CC1=CC2Cc3nc4cc(Cl)ccc4c(NCCCCCCCCNC(=O)c4cc(O)c5c(c4)C(=O)c4cccc(O)c4C5=O)c3C(C1)C2` (racemic) [(±)-(Ia)•HCl, (±)-N-{8-[(3-chloro-6,7,10,11-tetrahydro-9-methyl-7,11-methanocycloocta[b]quinolin-12-yl)amino]octyl}-9,10-dihydro-4,5-dihydroxy-9,10-dioxoanthracene-2-carboxamide], for which the IC50 against β-Secretase (BACE-1) amounted to 980 ± 200 nM; in assay [1], 88.6 ± 6.7 nM; against human serum BChE, 350 ± 17 nM. Also, at Aβ1-42, the “Aβ1-42 self-induced aggregation (%)” value is given as 33.1 ± 5.4%. For the same compound, the “AChE-induced Aβ1-40 aggregation (%)” value in assay [2] turned out to be 44.7 ± 8.4%.
For `CC1=CC2Cc3nc4cc(Cl)ccc4c(NCCCCCCCCCNC(=O)c4cc(O)c5c(c4)C(=O)c4cccc(O)c4C5=O)c3C(C1)C2` (racemic) [(±)-(Ib)•HCl, (±)-N-{9-[(3-chloro-6,7,10,11-tetrahydro-9-methyl-7,11-methanocycloocta[b]quinolin-12-yl)amino]nonyl}-9,10-dihydro-4,5-dihydroxy-9,10-dioxoanthracene-2-carboxamide], the IC50 was 120 ± 100 nM against β-Secretase (BACE-1) and 32.6 ± 1.7 nM in assay [1]. For the same compound, the “Aβ1-42 self-induced aggregation (%)” value on Aβ1-42 stood at 38.0 ± 4.6%. Besides, in assay [2], the “AChE-induced Aβ1-40 aggregation (%)” value was 48.7 ± 8.4%.
As to `CC1=CC2Cc3nc4cc(Cl)ccc4c(NCCCCCCCCCCNC(=O)c4cc(O)c5c(c4)C(=O)c4cccc(O)c4C5=O)c3C(C1)C2` (racemic) [(±)-(Ic)•HCl, (±)-N-{10-[(3-chloro-6,7,10,11-tetrahydro-9-methyl-7,11-methanocycloocta[b]quinolin-12-yl)amino]decyl}-9,10-dihydro-4,5-dihydroxy-9,10-dioxoanthracene-2-carboxamide], the IC50 against β-Secretase (BACE-1) was determined as 1190 ± 200 nM; in assay [1], 46.7 ± 2.4 nM; against human serum BChE, 1100 ± 40 nM. Further, the “Aβ1-42 self-induced aggregation (%)” value on Aβ1-42 is 40.9 ± 4.4%. The “AChE-induced Aβ1-40 aggregation (%)” value in assay [2] is on record as 29.2 ± 2.4%.
As to `CC1=CC2Cc3nc4cc(Cl)ccc4c(NCCCCCCCCCCCNC(=O)c4cc(O)c5c(c4)C(=O)c4cccc(O)c4C5=O)c3C(C1)C2` (racemic) [(±)-(Id)•HCl, (±)-N-{11-[(3-chloro-6,7,10,11-tetrahydro-9-methyl-7,11-methanocycloocta[b]quinolin-12-yl)amino]undecyl}-9,10-dihydro-4,5-dihydroxy-9,10-dioxoanthracene-2-carboxamide], the values for the IC50 (at β-Secretase (BACE-1); in assay [1] (read-out: IC50 eeAChE); at human serum BChE) were 1200 ± 100 nM, 16.3 ± 2.3 nM and 645 ± 67 nM, respectively. The “Aβ1-42 self-induced aggregation (%)” value on Aβ1-42 turned out to be 35.3 ± 4.0%. In assay [2], the “AChE-induced Aβ1-40 aggregation (%)” value came out at 38.2 ± 2.6%.
`CC1=CC2Cc3nc4cc(Cl)ccc4c(NCc4ccc(CNC(=O)c5cc(O)c6c(c5)C(=O)c5cccc(O)c5C6=O)cc4)c3C(C1)C2` (racemic) [(±)-(Ie)•HCl, (±)-N-{4-{[(3-chloro-6,7,10,11-tetrahydro-9-methyl-7,11-methanocycloocta[b]quinolin-12-yl)amino]methyl}benzyl}-9,10-dihydro-4,5-dihydroxy-9,10-dioxoanthracene-2-carboxamide]: the IC50 on β-Secretase (BACE-1) came to 2020 ± 400 nM; in assay [1] (read-out: IC50 eeAChE) it was 60 ± 7.5 nM; against human serum BChE it was 510 ± 20 nM. On Aβ1-42, the “Aβ1-42 self-induced aggregation (%)” value is on record as 32.4 ± 3.6%. The “AChE-induced Aβ1-40 aggregation (%)” value in assay [2] worked out at 35.2 ± 1.8%.
Consider `CC1=C[C@@H]2Cc3nc4cc(Cl)ccc4c(N)c3[C@H](C1)C2.Cl` [(+)-Huprine Y•HCl, huprine Y, reference compound], for which the results for the IC50 (at β-Secretase (BACE-1) (read-out: BACE-1 IC50); in assay [1] (read-out: IC50 eeAChE); at human serum BChE (read-out: IC50 hBChE)) were more than 5000 nM, 373 ± 50 nM and 170 ± 17 nM, respectively. The “Aβ1-42 self-induced aggregation (%)” value on Aβ1-42 is reported as 13.2 ± 1.9%. Also, the “AChE-induced Aβ1-40 aggregation (%)” value in assay [2] was 9.1 ± 3.6%.
Turning to `CC1=C[C@@H]2Cc3nc4cc(Cl)ccc4c(N)c3[C@H](C1)C2.Cl` [(−)-Huprine Y•HCl, huprine Y, reference compound], the “BACE-1 % inhibition at 5 μM” value at β-Secretase (BACE-1) (5 μM) is “(14.0 ± 0.1% at”. Also, the IC50 on β-Secretase (BACE-1) (read-out: BACE-1 IC50) is more than 5000 nM; in assay [1] (read-out: IC50 eeAChE), 0.06 ± 0.01 nM; at human serum BChE (read-out: IC50 hBChE), 222 ± 17 nM. Further, at Aβ1-42, the “Aβ1-42 self-induced aggregation (%)” value worked out at 11.5 ± 5.2%. In assay [2], the “AChE-induced Aβ1-40 aggregation (%)” value amounted to 24.7 ± 1.3%.
`O=C(O)c1cc(O)c2c(c1)C(=O)c1cccc(O)c1C2=O` [Rhein, rhein, reference compound]: the half-inhibitory concentration (IC50) in assay [1] is 637 ± 87 nM; at human serum BChE (read-out: IC50 hBChE), 17000 ± 4220 nM.
Regarding “huprine Y [(±)-Huprine Y•HCl, reference compound]”, the IC50 in assay [1] (read-out: IC50 eeAChE) turned out to be 0.08 ± 0.01 nM. Also, the “AChE-induced Aβ1-40 aggregation (%)” value in assay [2] was determined as 17.1 ± 4.5%.
